Test results as given in patent US8729056B2, “Preventive and/or therapeutic agent of hand-foot syndrome” (Ono Pharmaceutical Co., Ltd., priority 2010, dated 2014).

Assays:
[1] = compared with tolterodine; Pharmacology and Toxicology Vol. 81, 1997; cited from earlier work
[2] = WO1999/58478; cited from earlier work
[3] = tested on: Hand-Foot Syndrome; conditions: patients with highest Hand-Foot Syndrome grade of 3; on average; Phase 2 clinical study in Japan; cited from earlier work
[4] = sweat from patients with Hand-Foot Syndrome administered the drug; cited from earlier work
[5] = tested on: Hand-Foot Syndrome caused by sunitinib malate administration; experiment: Case 2: effect of imidafenacin on Hand-Foot Syndrome caused by sunitinib malate in a kidney cancer patient; assay type: in vivo, human; conditions: imidafenacin combined with urea ointment, heparinoid ointment and clobetasol propionate ointment, after eight days of such treatment
Source text: (§1) In the present invention, the preventive and/or treatment effect of the anticholinergic drug against Hand-Foot Syndrome can be evaluated, for example, by the criteria of Hand-Foot Syndrome in Table 1, Table 2, and Table 3 as shown below. Table 1 is the criteria proposed by Blum, and appeared on page 485-493 in volume 17 of Journal Clinical Oncology published in 1999. Grade 0 is not referred to in this table, but it is understood as grade 0 if no symptom is observed. Table 2 is the National Cancer Institute-Common Toxicity Criteria Version 2.0 (NCI-CTC v2.0), and Table 3 is the National Cancer Institute-Common Terminology Criteria for Adverse Events Version 3.0 (NCI-CTCAE v3.0). Grade 0 is also not referred to in Table 3, but it is understood as grade 0 if no symptom is observed.

[6] = tested on: Hand-Foot Syndrome caused by sorafenib tosilate administration; experiment: Cases 3-6: effect of anticholinergic drugs on Hand-Foot Syndrome caused by sorafenib tosilate in kidney cancer patients; assay type: in vivo, human
Source text: as §1
We examined the effect of imidafenacin in a patient with kidney cancer who developed Hand-Foot Syndrome caused by sorafenib tosilate administration (sorafenib 800 mg/day).
We examined the effect of imidafenacin in a patient with kidney cancer who developed Hand-Foot Syndrome caused by sorafenib tosilate administration.
From this point, Imidafenacin 0.1 mg was orally administered to the patient twice a day in addition to the urea ointment.
We examined the effect of solifenacin succinate in a patient with kidney cancer who developed Hand-Foot Syndrome caused by sorafenib tosilate administration (sorafenib 800 mg/day).
We examined the effect of tolterodine tartrate in a patient with kidney cancer who developed Hand-Foot Syndrome caused by sorafenib tosilate administration.

Cc1nc(-c2ccccc2)nc(SCc2ccc(Cl)cc2)c1CO [5-hydroxymethyl derivative]
anticholinergic activity [1]: equivalent to tolterodine

CC(C)C(=O)Oc1ccc(CO)cc1[C@H](CCN(C(C)C)C(C)C)c1ccccc1 [Fesoterodine, 2-[(1R)-3-(dipropan-2-ylamino)-1-phenylpropyl]-4-(hydroxymethyl)phenyl 2-methylpropanoate]
metabolism after oral administration [2]: rapidly is metabolized to the 5-hydroxymethyl derivative

CCCCCOC(=O)Nc1nc(=O)n([C@@H]2O[C@H](C)[C@@H](O)[C@H]2O)cc1F [capecitabine]
period for recovery of Hand-Foot Syndrome after interruption [3]: about two to three

COc1cccc2c1C(=O)c1c(O)c3c(c(O)c1C2=O)C[C@@](O)(C(=O)CO)C[C@@H]3O[C@H]1C[C@H](N)[C@H](O)[C@H](C)O1 [doxorubicin]
drug substance in sweat [4]: detected

Cc1nccn1CCC(C(N)=O)(c1ccccc1)c1ccccc1 [imidafenacin, 4-(2-Methyl-1H-imidazole-1-yl)-2,2-diphenylbutanamide]
recovery from Hand-Foot Syndrome [5]: full recovery
recurrence of Hand-Foot Syndrome ([6]; case 3, after full recovery, continuous administration of imidafenacin and the moisturizing agent): prevented
recovery from Hand-Foot Syndrome ([6]; case 3, imidafenacin continued in combination with heparinoid cream, after 22 days): full recovery

Cc1ncc(CO)c(CO)c1O.Cl [pyridoxine hydrochloride]
change of Hand-Foot Syndrome ([6]; case 6, grade 3, urea ointment in addition to pyridoxine hydrochloride, sorafenib 800 mg/day, without tolterodine tartrate): no improvements

O=C(O[C@H]1CN2CCC1CC2)N1CCc2ccccc2[C@@H]1c1ccccc1 [solifenacin succinate, (3R)-1-Azabicyclo[2.2.2]oct-3-yl(1S)-1-phenyl-3,4-dihydroisoquinoline-2(1H)-carboxylate]
recurrence of Hand-Foot Syndrome ([6]; case 5, continuous administration of solifenacin succinate after full recovery): prevented
recovery from Hand-Foot Syndrome ([6]; case 5, solifenacin succinate 5 mg orally once a day, started at grade 2, 28 days after beginning): full recovery

CNC(=O)c1cc(Oc2ccc(NC(=O)Nc3ccc(Cl)c(C(F)(F)F)c3)cc2)ccn1 [sorafenib tosilate]
drug substance in sweat [4]: not detected
